The results in this text go back to PubChem BioAssay (NCI).

Structures are written as SMILES. “And” between values parts separate entries of the source, which are not always exact repeats. Equal entries are not always repeated.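 48-hour exposure; five concentrations; linearly interpolated endpoints. The concentration for 50% growth inhibition is given as GI50. The concentration for full growth arrest is given as TGI.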 A value given as a limit tells only on which side of the number the result lay.

Among the test systems are ACHN renal; CAKI-1 renal; DU-145 prostate; EKVX NSCLC; HL-60(TB) leukemia; HT29 colon; LOX IMVI melanoma; M14 melanoma; MDA-MB-435; MDA-N; NCI-H522 lung; OVCAR-3 ovarian; SK-MEL-5 melanoma; SNB-19 CNS; UACC-257 melanoma.
Common to all, as to assay: DTP human tumour cell line panel, 48 h

Consider `Cc1ccc(N=Nc2ccc(O)c(CN(C)C)c2)cc1`, for which the total growth inhibition concentration (TGI) (commonly the concentration giving total growth inhibition) in the assay with ACHN renal was found to be 41.8 µM; with CAKI-1 renal, 61.3 µM; in the assay with DU-145 prostate, 47.3 µM; with EKVX NSCLC, 51.9 µM; in the assay with HL-60(TB) leukemia, 41.3 µM; with HT29 colon, 32.3 µM. The TGI came out at 28.6 µM with LOX IMVI melanoma; 41.6 µM with M14 melanoma; 32.3 µM in the assay on MDA-MB-435; 30.6 µM with MDA-N; 32.6 µM in the assay on NCI-H522 lung; 31.8 µM in the assay on OVCAR-3 ovarian. For the same compound, the TGI is 28 µM in the assay on SK-MEL-5 melanoma, > 100 µM with SNB-19 CNS and 32.3 µM with UACC-257 melanoma.

Regarding `CC(=O)NC(CCC(=O)C=[N+]=N)C(=O)O` (stereo not given), the TGI with ACHN renal, in the assay with DU-145 prostate, in the assay on EKVX NSCLC, in the assay with HL-60(TB) leukemia, in the assay on HT29 colon and in the assay with LOX IMVI melanoma was > 100 µM throughout. The TGI with M14 melanoma, in the assay on MDA-MB-435, in the assay with MDA-N, in the assay with NCI-H522 lung, in the assay with OVCAR-3 ovarian and in the assay with SK-MEL-5 melanoma was > 100 µM in each case. In addition, the TGI in the assay on SNB-19 CNS and in the assay on UACC-257 melanoma was > 100 µM in each case.

Regarding `CCOC(=O)CSc1nnc2cc(CN3CCCC3)c(-c3ccc(Cl)cc3)nn12`, the TGI in the assay on ACHN renal, in the assay with CAKI-1 renal, in the assay on DU-145 prostate, in the assay with EKVX NSCLC, with HL-60(TB) leukemia and with HT29 colon was > 100 µM each time. Also, the TGI in the assay on LOX IMVI melanoma, with M14 melanoma, with MDA-MB-435, with MDA-N, in the assay with NCI-H522 lung and with OVCAR-3 ovarian was > 100 µM throughout. The TGI in the assay with SK-MEL-5 melanoma, with SNB-19 CNS and with UACC-257 melanoma was > 100 µM each time.

`CC(=O)Nc1ccc(-c2nc3ccccc3s2)cc1I`: the TGI in the assay on ACHN renal was > 100 µM; in the assay on CAKI-1 renal it was > 100 µM; with DU-145 prostate, > 51 µM; in the assay on EKVX NSCLC, 80.1 µM; in the assay on HL-60(TB) leukemia, > 100 µM; in the assay on HT29 colon, > 100 µM. Besides, the TGI in the assay with LOX IMVI melanoma is > 81.7 µM; in the assay with M14 melanoma, > 87.7 µM; with MDA-MB-435, > 100 µM; with MDA-N it was > 100 µM; in the assay with NCI-H522 lung, > 100 µM; in the assay with OVCAR-3 ovarian, 32.4 µM. For the same compound, the TGI was > 100 µM in the assay on SK-MEL-5 melanoma, > 87.5 µM in the assay with SNB-19 CNS and > 100 µM in the assay with UACC-257 melanoma.

With `CC1Oc2c(c(=O)oc3ccccc23)[C@@]1(C)CC1C[C@H](C)C(=O)O1` (stereo not given in full), the TGI was 65.8 µM in the assay on ACHN renal; 38.1 µM in the assay with CAKI-1 renal; > 100 µM with DU-145 prostate; > 100 µM in the assay with EKVX NSCLC; > 100 µM with HL-60(TB) leukemia; 71.5 µM with HT29 colon. Also, the TGI with LOX IMVI melanoma was > 100 µM; with M14 melanoma it was 39.6 µM; with MDA-MB-435, 47.8 µM; in the assay on MDA-N, 45.9 µM; in the assay on NCI-H522 lung, 34.2 µM; with OVCAR-3 ovarian, 45.3 µM. Further, the TGI in the assay on SK-MEL-5 melanoma, in the assay with SNB-19 CNS and in the assay on UACC-257 melanoma was > 100 µM each time.

Consider `CCOC(=O)c1cnc2n(c1=N)[C@H]1CCCC[C@@H]1N2`, for which the TGI in the assay with ACHN renal, in the assay on CAKI-1 renal, in the assay with DU-145 prostate, with EKVX NSCLC, in the assay on HL-60(TB) leukemia and in the assay with HT29 colon was > 100 µM in each case. Further, the TGI with LOX IMVI melanoma, in the assay on M14 melanoma, in the assay on MDA-MB-435, with MDA-N, with NCI-H522 lung and in the assay on OVCAR-3 ovarian was > 100 µM each time. Also, the TGI with SK-MEL-5 melanoma, in the assay with SNB-19 CNS and in the assay on UACC-257 melanoma was > 100 µM each time.

Turning to `Cc1ncc2c(=O)c3c(oc2n1)c1ccccc1n3Cc1ccccc1`, the TGI with ACHN renal, in the assay on CAKI-1 renal, in the assay on DU-145 prostate, in the assay on EKVX NSCLC, with HL-60(TB) leukemia and in the assay with HT29 colon was > 100 µM in each case. In addition, the TGI in the assay on LOX IMVI melanoma, with MDA-MB-435, in the assay on MDA-N, with NCI-H522 lung, in the assay on OVCAR-3 ovarian and in the assay on SK-MEL-5 melanoma was > 100 µM in each case. In addition, the TGI in the assay with SNB-19 CNS and in the assay with UACC-257 melanoma was > 100 µM throughout.

For `O=C(c1ccccc1)c1ccc(-n2c3ccccc3c3ccc4c(c32)C(=O)C=CC4=O)cc1`, the TGI with ACHN renal is 11.6 µM; with CAKI-1 renal, 4.4 µM; in the assay with DU-145 prostate it was > 40.1 µM; with EKVX NSCLC, 26.3 µM; with HL-60(TB) leukemia, 18.2 µM; in the assay with HT29 colon it was 8.35 µM. In addition, the TGI came to 16.3 µM with LOX IMVI melanoma; 23.6 µM in the assay on M14 melanoma; 20.5 µM with MDA-MB-435; 40.6 µM with MDA-N; 8.9 µM in the assay with NCI-H522 lung; 20.8 µM in the assay on OVCAR-3 ovarian. Further, the TGI with SK-MEL-5 melanoma came out at 43 µM; in the assay on SNB-19 CNS, 36.4 µM; in the assay on UACC-257 melanoma it was 27.5 µM.

For the compound `CC1CCC2(C(=O)O)CCC3(C)C(=CCC4C5(C)CCC(O)C(C)(C)C5CCC43C)C2C1C` (stereo not given), the TGI in the assay on CAKI-1 renal is 16.6 µM and 17.5 µM; in the assay with DU-145 prostate, 21.6 µM; with EKVX NSCLC, 23.2 µM and 28.6 µM; in the assay on HL-60(TB) leukemia it was 19 µM and 6.49 µM; in the assay on HT29 colon, 22.9 µM and 37.7 µM; in the assay with LOX IMVI melanoma, 17.2 µM and > 100 µM. In addition, the TGI is 4.28 µM in the assay on M14 melanoma; 75.1 µM in the assay on MDA-MB-435; 28.2 µM in the assay on MDA-N; 17.8 µM and 28.9 µM in the assay with NCI-H522 lung; 18.4 µM and 26.8 µM in the assay with OVCAR-3 ovarian; 50.8 µM and 23.8 µM in the assay on SK-MEL-5 melanoma. For the same compound, the TGI is 17.9 µM in the assay with SNB-19 CNS; 13.7 µM and 32.6 µM with UACC-257 melanoma. Besides, the GI50 (in general, the concentration at which growth is held to half of that of the control) with NCI-H522 lung was 6.98 µM and 14.4 µM; with SK-MEL-5 melanoma, 26.4 µM and 11.3 µM; in the assay on UACC-257 melanoma, 4.8 µM and 12.1 µM.
